What was measured:
duck salad = assay: Test B flood test duck salad; assay type: in vivo, Heteranthera limosa
Outline: (§1)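 Read-out is a visual response score from 0 (no effect) to 10 (complete control), assigned by comparison with untreated controls. Treatment was applied at the 2-leaf stage, and plants stayed in the greenhouse for twelve to sixteen days before scoring.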

corn = assay: Test B pre/postemergence corn; assay type: in vivo, Zea mays
Outline: (§2)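 Test chemicals in a non-phytotoxic solvent mixture with surfactant were sprayed preemergence onto planted seeds and postemergence onto plants 2 to 18 cm tall (1- to 4-leaf stage). After twelve to sixteen days in a greenhouse, injury was visually rated against untreated controls from 0 (no effect) to 10 (complete control).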

purple nutsedge = assay: Test B pre/postemergence purple nutsedge; assay type: in vivo, Cyperus rotundus
Outline: as §2

wheat = assay: Test B pre/postemergence wheat; assay type: in vivo, Triticum aestivum
Outline: as §2

giant foxtail = assay: Test B pre/postemergence giant foxtail; assay type: in vivo, Setaria faberii
Outline: as §2

velvetleaf = assay: Test B pre/postemergence velvetleaf; assay type: in vivo, Abutilon theophrasti
Outline: as §2

smallflower flatsedge = assay: Test B flood test smallflower flatsedge; assay type: in vivo, Cyperus difformis
Outline: as §1

morningglory = assay: Test B pre/postemergence morningglory; assay type: in vivo, Ipomoea hederacea
Outline: as §2

soybean = assay: Test B pre/postemergence soybean; assay type: in vivo, Glycine max
Outline: as §2

rape = assay: Test B pre/postemergence rape; assay type: in vivo, Brassica napus
Outline: as §2

surinam grass = assay: Test B pre/postemergence surinam grass; assay type: in vivo, Brachiaria decumbens
Outline: as §2

wild oat = assay: Test B pre/postemergence wild oat; assay type: in vivo, Avena fatua
Outline: as §2

rice = assay: Test B flood test rice; assay type: in vivo, Oryza sativa
Outline: as §1

blackgrass = assay: Test B pre/postemergence blackgrass; assay type: in vivo, Alopecurus myosuroides
Outline: as §2

crabgrass = assay: Test B pre/postemergence crabgrass; assay type: in vivo, Digitaria sanguinalis
Outline: as §2

[1] = Rate 62 g/ha, flood test species, Pre-emergence, visual evaluation after twelve to sixteen days
[2] = Rate 125 g/ha, under heading Pre-emergence, flood test species, visual evaluation after twelve to sixteen days
[3] = Rate 250 g/ha, Pre-emergence (flood test species), scale 0 to 10, 0 is no effect, 10 is complete control
[4] = Rate 500 g/ha, Pre-emergence, flood test species, scale 0 to 10 (0 no effect, 10 complete control)
[5] = Postemergence, Rate 250 g/ha, scale 0 to 10
[6] = Postemergence, Rate 500 g/ha, scale of 0 to 10 where 0 is no effect and 10 is complete control
[7] = Preemergence, Rate 62 g/ha, scale of 0 to 10 where 0 is no effect and 10 is complete control
[8] = Preemergence, Rate 125 g/ha, scale of 0 to 10 where 0 is no effect and 10 is complete control
[9] = Preemergence, Rate 250 g/ha, scale 0 to 10, 0 is no effect, 10 is complete control
[10] = Preemergence, Rate 500 g/ha, scale 0 to 10, 0 is no effect, 10 is complete control
[11] = Rate 62 g/ha, Postemergence, scale 0 to 10 (0 no effect, 10 complete control)
[12] = Rate 125 g/ha, Postemergence, scale 0 to 10, 0 is no effect, 10 is complete control

CC(C)N(C(=O)n1oc(=O)n(CCC#N)c1=O)c1ccc(Cl)cc1 [Compound 444]
Plant response rating, Ducksalad (0 to 10 scale, 0 is no effect, 10 is complete control) (duck salad; [1]): 0 | Ducksalad plant response rating (0 to 10 scale, 0 is no effect, 10 is complete control) (duck salad; [2]): 0 | Ducksalad plant response rating (duck salad; [3]): 0 | Ducksalad plant response rating (duck salad; [4]): 0 | Corn plant response rating (corn; [5]): 0 | Corn plant response rating (corn; [6]): 0 | Plant response rating, Corn (corn; [7]): 0 | Plant response rating, Corn (corn; [8]): 0 | Corn plant response rating (corn; [9]): 0 | Corn plant response rating (corn; [10]): 0 | Corn plant response rating (corn; [11]): 0 | Corn plant response rating (corn; [12]): 0 | Nutsedge plant response rating (purple nutsedge; [5]): 0 | Nutsedge plant response rating (purple nutsedge; [6]): 0 | Plant response rating, Nutsedge (purple nutsedge; [7]): 0 | Plant response rating, Nutsedge (purple nutsedge; [8]): 0 | Nutsedge plant response rating (purple nutsedge; [9]): 0 | Nutsedge plant response rating (purple nutsedge; [10]): 0 | Nutsedge plant response rating (purple nutsedge; [11]): 0 | Nutsedge plant response rating (purple nutsedge; [12]): 0 | Wheat plant response rating (wheat; [5]): 0 | Wheat plant response rating (wheat; [6]): 0 | Plant response rating, Wheat (wheat; [7]): 0 | Plant response rating, Wheat (wheat; [8]): 0 | Wheat plant response rating (wheat; [9]): 0 | Wheat plant response rating (wheat; [10]): 0 | Wheat plant response rating (wheat; [11]): 0 | Wheat plant response rating (wheat; [12]): 0 | Giant foxtail plant response rating (giant foxtail; [5]): 8 | Giant foxtail plant response rating (giant foxtail; [6]): 9 | Plant response rating, Giant foxtail (giant foxtail; [7]): 9 | Plant response rating, Giant foxtail (giant foxtail; [8]): 9 | Giant foxtail plant response rating (giant foxtail; [9]): 10 | Giant foxtail plant response rating (giant foxtail; [10]): 10 | Giant foxtail plant response rating (giant foxtail; [11]): 4 | Giant foxtail plant response rating (giant foxtail; [12]): 7 | Velvetleaf plant response rating (velvetleaf; [5]): 0 | Velvetleaf plant response rating (velvetleaf; [6]): 3 | Plant response rating, Velvetleaf (velvetleaf; [7]): 0 | Plant response rating, Velvetleaf (velvetleaf; [8]): 0 | Velvetleaf plant response rating (velvetleaf; [9]): 0 | Velvetleaf plant response rating (velvetleaf; [10]): 4 | Velvetleaf plant response rating (velvetleaf; [11]): 0 | Velvetleaf plant response rating (velvetleaf; [12]): 0 | Plant response rating, S. Flatsedge (0 to 10 scale, 0 is no effect, 10 is complete control) (smallflower flatsedge; [1]): 0 | S. Flatsedge plant response rating (0 to 10 scale, 0 is no effect, 10 is complete control) (smallflower flatsedge; [2]): 0 | S. Flatsedge plant response rating (smallflower flatsedge; [3]): 0 | S. Flatsedge plant response rating (smallflower flatsedge; [4]): 0 | Morningglory plant response rating (morningglory; [5]): 1 | Morningglory plant response rating (morningglory; [6]): 3 | Plant response rating, Morningglory (morningglory; [7]): 0 | Plant response rating, Morningglory (morningglory; [8]): 0 | Morningglory plant response rating (morningglory; [9]): 0 | Morningglory plant response rating (morningglory; [10]): 0 | Morningglory plant response rating (morningglory; [11]): 0 | Morningglory plant response rating (morningglory; [12]): 0 | Soybean plant response rating (soybean; [5]): 2 | Soybean plant response rating (soybean; [6]): 2 | Plant response rating, Soybean (soybean; [7]): 0 | Plant response rating, Soybean (soybean; [8]): 0 | Soybean plant response rating (soybean; [9]): 2 | Soybean plant response rating (soybean; [10]): 3 | Soybean plant response rating (soybean; [11]): 1 | Soybean plant response rating (soybean; [12]): 1 | Rape plant response rating (rape; [5]): 0 | Rape plant response rating (rape; [6]): 0 | Plant response rating, Rape (rape; [7]): 0 | Plant response rating, Rape (rape; [8]): 0 | Rape plant response rating (rape; [9]): 0 | Rape plant response rating (rape; [10]): 2 | Rape plant response rating (rape; [11]): 0 | Rape plant response rating (rape; [12]): 0 | B. signalgrass plant response rating (surinam grass; Postemergence, Rate 250 g/ha, scale 0 to 10, 0 no effect, 10 complete control): 4 | B. signalgrass plant response rating (surinam grass; [6]): 4 | Plant response rating, B. signalgrass (surinam grass; [7]): 0 | Plant response rating, B. signalgrass (surinam grass; [8]): 0 | B. signalgrass plant response rating (surinam grass; [9]): 1 | B. signalgrass plant response rating (surinam grass; [10]): 8 | B. signalgrass plant response rating (surinam grass; [11]): 0 | B. signalgrass plant response rating (surinam grass; [12]): 0 | Wild oats plant response rating (wild oat; [5]): 0 | Wild oats plant response rating (wild oat; [6]): 2 | Plant response rating, Wild oats (wild oat; [7]): 0 | Plant response rating, Wild oats (wild oat; [8]): 0 | Wild oats plant response rating (wild oat; [9]): 0 | Wild oats plant response rating (wild oat; [10]): 4 | Wild oats plant response rating (wild oat; [11]): 0 | Wild oats plant response rating (wild oat; [12]): 0 | Plant response rating, Rice (0 to 10 scale, 0 is no effect, 10 is complete control) (rice; [1]): 0 | Rice plant response rating (0 to 10 scale, 0 is no effect, 10 is complete control) (rice; [2]): 0 | Rice plant response rating (rice; [3]): 0 | Rice plant response rating (rice; [4]): 0 | Blackgrass plant response rating (blackgrass; [5]): 5 | Blackgrass plant response rating (blackgrass; [6]): 7 | Plant response rating, Blackgrass (blackgrass; [7]): 0 | Plant response rating, Blackgrass (blackgrass; [8]): 0 | Blackgrass plant response rating (blackgrass; [9]): 8 | Blackgrass plant response rating (blackgrass; [10]): 8 | Blackgrass plant response rating (blackgrass; [11]): 0 | Blackgrass plant response rating (blackgrass; [12]): 2 | Crabgrass plant response rating (crabgrass; [5]): 9 | Crabgrass plant response rating (crabgrass; [6]): 9 | Plant response rating, Crabgrass (crabgrass; [7]): 4 | Plant response rating, Crabgrass (crabgrass; [8]): 5 | Crabgrass plant response rating (crabgrass; [9]): 9 | Crabgrass plant response rating (crabgrass; [10]): 10 | Crabgrass plant response rating (crabgrass; [11]): 2 | Crabgrass plant response rating (crabgrass; [12]): 2

From US6737383B1, “Herbicidal oxadiazolidines” (priority 1999, dated 2004)
